# Laboratory results reported in ChEMBL document CHEMBL3638759, “Substituted 2-aza-bicyclo[2.2.1]heptane-3-carboxylic acid (cyano-methyl)-amides inhibitors of cathepsin C” (2014).
# Target: Dipeptidyl peptidase 1 (Homo sapiens, UniProt P53634)
# Assay: Inhibition Assay: The following buffers were used: MES buffer: 25 mM MES, 50 mM NaCl, 5 mM DTT, adjusted to pH 6.0, containing 0.1% BSA; TAGZyme Buffer: 20 mM NaH2PO4, 150 mM NaCl adjusted to pH is 6.0 with HClAssay Conditions:The recombinant human DPPI was diluted in TAGZyme buffer to 1 U/ml (38.1 ug/ml, respectively), and then activated by mixing in a 1:2 ratio with a Cysteamine aqueous solution (2 mM) and incubating for 5 mM at room temperature.Five uL test compound (final concentration 0.1 nM to 100 uM) in aqua bidest (containing 4% DMSO, final DMSO concentration 1%) were mixed with 10 uL of DPPI in MES buffer (final concentration 0.0125 ng/uL) and incubated for 10 min. Then, 5 uL of substrate in MES buffer (final concentration 50 uM) were added. The microtiter plates were then incubated at room temperature for […] Then, the reaction was stopped by adding 10 uL of Gly-Phe-DMK in MES-buffer (final concentration 1 uM).
# Dipeptidyl peptidase 1, sequence (P53634 25-134 limits assumed): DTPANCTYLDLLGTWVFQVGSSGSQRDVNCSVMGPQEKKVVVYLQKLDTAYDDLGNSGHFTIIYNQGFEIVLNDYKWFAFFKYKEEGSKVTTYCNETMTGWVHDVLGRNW
# Dipeptidyl peptidase 1, sequence (P53634 231-394 limits assumed): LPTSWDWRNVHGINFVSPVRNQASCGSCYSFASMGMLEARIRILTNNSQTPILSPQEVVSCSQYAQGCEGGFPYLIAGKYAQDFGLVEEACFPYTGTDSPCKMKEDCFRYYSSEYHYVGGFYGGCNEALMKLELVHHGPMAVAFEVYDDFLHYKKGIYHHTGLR
# Dipeptidyl peptidase 1, sequence (P53634 395-463 limits assumed): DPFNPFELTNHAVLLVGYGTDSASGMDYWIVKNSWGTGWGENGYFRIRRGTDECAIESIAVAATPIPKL
compound,measurement,value
CN1C(=O)Cc2ccc(-c3sc(CC(C#N)NC(=O)[C@H]4N[C@@H]5CC[C@H]4C5)c(F)c3Br)cc21 (stereo partly specified),Ki,3.6 nM
